Data reported in patent publication US20240208992A1, “MACROCYCLES AS CFTR MODULATORS” (Idorsia Pharmaceuticals Ltd, priority 2021, published 2024).

Target: human F508del-CFTR (Homo sapiens, UniProt P13569, DEL508-508)
Assay: F508del-CFTR cell surface expression (corrector activity), DiscoveRx ß-galactosidase complementation chemiluminescence assay in recombinant U2OS cell line;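 further: U2OS cells co-expressing ProLink-tagged F508del-CFTR and a membrane-anchored enzyme acceptor, where more surface CFTR restores β-galactosidase activity measured by chemiluminescence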
Conditions: U2OS cell line, 16h compound incubation; for EC50: EC50, F508del-CFTR cell surface expression, geomean values; for Emax: U2OS, in relation to the Emax of the corrector lumacaftor (=100%), arithmetic mean values

Sequence of human F508del-CFTR (P13569 with tags, fused parts or gaps DEL508-508): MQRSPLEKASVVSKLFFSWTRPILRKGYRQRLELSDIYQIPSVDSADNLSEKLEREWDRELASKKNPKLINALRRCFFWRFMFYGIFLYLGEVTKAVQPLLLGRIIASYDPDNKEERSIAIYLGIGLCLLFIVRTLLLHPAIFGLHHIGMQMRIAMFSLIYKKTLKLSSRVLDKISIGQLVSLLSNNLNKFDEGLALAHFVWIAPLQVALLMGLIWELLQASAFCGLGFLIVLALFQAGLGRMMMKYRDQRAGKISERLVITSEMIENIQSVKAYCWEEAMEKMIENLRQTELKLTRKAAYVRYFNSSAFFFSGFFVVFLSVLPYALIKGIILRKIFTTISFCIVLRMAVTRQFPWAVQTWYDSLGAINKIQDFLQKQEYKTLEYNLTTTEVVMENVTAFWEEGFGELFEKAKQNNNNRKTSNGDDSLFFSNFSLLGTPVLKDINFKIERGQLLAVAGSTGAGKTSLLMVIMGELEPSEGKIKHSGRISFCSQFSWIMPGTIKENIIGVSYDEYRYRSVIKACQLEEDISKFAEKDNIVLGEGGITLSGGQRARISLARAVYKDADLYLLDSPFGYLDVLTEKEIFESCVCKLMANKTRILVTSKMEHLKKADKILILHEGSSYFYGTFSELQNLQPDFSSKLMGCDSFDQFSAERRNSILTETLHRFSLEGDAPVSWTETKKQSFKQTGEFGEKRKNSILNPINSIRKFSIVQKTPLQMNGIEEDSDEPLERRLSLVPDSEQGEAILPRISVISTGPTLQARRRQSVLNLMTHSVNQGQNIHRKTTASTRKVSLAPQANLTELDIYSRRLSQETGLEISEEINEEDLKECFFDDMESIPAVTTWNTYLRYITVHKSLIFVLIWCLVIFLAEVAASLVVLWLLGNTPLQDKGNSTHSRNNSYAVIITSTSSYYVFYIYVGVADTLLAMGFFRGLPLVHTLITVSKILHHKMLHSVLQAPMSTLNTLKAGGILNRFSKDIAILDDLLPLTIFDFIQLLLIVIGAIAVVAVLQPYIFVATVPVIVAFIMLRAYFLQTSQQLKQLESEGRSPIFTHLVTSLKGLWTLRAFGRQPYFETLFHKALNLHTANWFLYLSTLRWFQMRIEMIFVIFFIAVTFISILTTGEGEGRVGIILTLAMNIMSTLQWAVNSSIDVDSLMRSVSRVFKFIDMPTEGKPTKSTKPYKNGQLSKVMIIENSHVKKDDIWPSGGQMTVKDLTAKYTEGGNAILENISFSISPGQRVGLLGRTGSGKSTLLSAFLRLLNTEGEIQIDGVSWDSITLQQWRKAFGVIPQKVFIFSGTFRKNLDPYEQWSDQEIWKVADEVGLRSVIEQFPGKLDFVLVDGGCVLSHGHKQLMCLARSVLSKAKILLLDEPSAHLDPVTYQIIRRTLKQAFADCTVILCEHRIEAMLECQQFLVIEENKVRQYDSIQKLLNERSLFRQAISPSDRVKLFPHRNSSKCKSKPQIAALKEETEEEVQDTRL

Row | SMILES | EC50 [nM] | Emax [%]
1 | COc1cccc2c1C(=O)N[C@H](C(=O)NCCc1ccc(C)cc1)CC(=O)N(C)[C@@H](CC(C)C)C(=O)N(CCC1CCCCC1)CC(=O)N[C@H](Cc1ccccc1)CO2 [Example 202, (3R,9S,13S)-3-benzyl-7-(2-cyclohexylethyl)-9-isobutyl-16-methoxy-10-methyl-N-(4-methylphenethyl)-5,8,11,15-tetraoxo-2,3,4,5,6,7,8,9,10,11,12,13,14,15-tetradecahydrobenzo[p][1]oxa[4,7,10,14]tetraazacycloheptadecine-13-carboxamide] | 187 | 160
2 | COc1cccc2c1C(=O)N[C@H](C(=O)NCCc1ccccc1F)CC(=O)N(C)[C@@H](CC(C)C)C(=O)N(CCC1CCCCC1)CC(=O)N[C@H](Cc1ccccc1)CO2 [Example 204, (3R,9S,13S)-3-benzyl-7-(2-cyclohexylethyl)-N-(2-fluorophenethyl)-9-isobutyl-16-methoxy-10-methyl-5,8,11,15-tetraoxo-2,3,4,5,6,7,8,9,10,11,12,13,14,15-tetradecahydrobenzo[p][1]oxa[4,7,10,14]tetraazacycloheptadecine-13-carboxamide] | 198 | 173
3 | COc1cc(CCNC(=O)[C@@H]2CC(=O)N(C)[C@@H](CC(C)C)C(=O)N(CCC3CCCCC3)CC(=O)N[C@H](Cc3ccccc3)COc3cccc(OC)c3C(=O)N2)cc(OC)c1 [Example 205, (3R,9S,13S)-3-benzyl-7-(2-cyclohexylethyl)-N-(3,5-dimethoxyphenethyl)-9-isobutyl-16-methoxy-10-methyl-5,8,11,15-tetraoxo-2,3,4,5,6,7,8,9,10,11,12,13,14,15-tetradecahydrobenzo[p][1]oxa[4,7,10,14]tetraazacycloheptadecine-13-carboxamide] | 175 | 229
4 | COc1cccc2c1C(=O)N[C@H](C(=O)NCCc1cccs1)CC(=O)N(C)[C@@H](CC(C)C)C(=O)N(CCC1CCCCC1)CC(=O)N[C@H](Cc1ccccc1)CO2 [Example 206, (3R,9S,13S)-3-benzyl-7-(2-cyclohexylethyl)-9-isobutyl-16-methoxy-10-methyl-5,8,11,15-tetraoxo-N-(2-(thiophen-2-yl)ethyl)-2,3,4,5,6,7,8,9,10,11,12,13,14,15-tetradecahydrobenzo[p][1]oxa[4,7,10,14]tetraazacycloheptadecine-13-carboxamide] | 272 | 164
5 | COc1cccc2c1C(=O)N[C@H](C(=O)NCCc1ccccc1)CC(=O)N(C)[C@@H](CC(C)C)C(=O)N(CCC1CCCCC1)CC(=O)N[C@H](Cc1ccccc1)CO2 [Example 211, (3R,9S,13S)-3-benzyl-7-(2-cyclohexylethyl)-9-isobutyl-16-methoxy-10-methyl-5,8,11,15-tetraoxo-N-phenethyl-2,3,4,5,6,7,8,9,10,11,12,13,14,15-tetradecahydrobenzo[p][1]oxa[4,7,10,14]tetraazacycloheptadecine-13-carboxamide] | 309 | 146
6 | CCc1ccc(CCNC(=O)[C@@H]2CC(=O)N(C)[C@@H](CC(C)C)C(=O)N(CCC3CCCCC3)CC(=O)N[C@H](Cc3ccccc3)COc3cccc(OC)c3C(=O)N2)cc1 [Example 215, (3R,9S,13S)-3-benzyl-7-(2-cyclohexylethyl)-N-(4-ethylphenethyl)-9-isobutyl-16-methoxy-10-methyl-5,8,11,15-tetraoxo-2,3,4,5,6,7,8,9,10,11,12,13,14,15-tetradecahydrobenzo[p][1]oxa[4,7,10,14]tetraazacycloheptadecine-13-carboxamide] | 214 | 172
7 | COc1cc(CCNC(=O)[C@@H]2CC(=O)N(C)[C@@H](CC(C)C)C(=O)N(CCC3CCCCC3)CC(=O)N[C@H](Cc3ccccc3)COc3cccc(OC)c3C(=O)N2)ccc1N [Example 218, (3R,9S,13S)-N-(4-amino-3-methoxyphenethyl)-3-benzyl-7-(2-cyclohexylethyl)-9-isobutyl-16-methoxy-10-methyl-5,8,11,15-tetraoxo-2,3,4,5,6,7,8,9,10,11,12,13,14,15-tetradecahydrobenzo[p][1]oxa[4,7,10,14]tetraazacycloheptadecine-13-carboxamide] | 353 | 143

More lines, now with the values ahead:

Row | EC50 [nM] | Emax [%] | SMILES
8 | 183 | 134 | COc1cccc2c1C(=O)N[C@H](C(=O)NCCc1ccc(N(C)C)cc1)CC(=O)N(C)[C@@H](CC(C)C)C(=O)N(CCC1CCCCC1)CC(=O)N[C@H](Cc1ccccc1)CO2 [Example 203, (3R,9S,13S)-3-benzyl-7-(2-cyclohexylethyl)-N-(4-(dimethylamino)phenethyl)-9-isobutyl-16-methoxy-10-methyl-5,8,11,15-tetraoxo-2,3,4,5,6,7,8,9,10,11,12,13,14,15-tetradecahydrobenzo[p][1]oxa[4,7,10,14]tetraazacycloheptadecine-13-carboxamide]
9 | 317 | 138 | COc1ccc(CCNC(=O)[C@@H]2CC(=O)N(C)[C@@H](CC(C)C)C(=O)N(CCC3CCCCC3)CC(=O)N[C@H](Cc3ccccc3)COc3cccc(OC)c3C(=O)N2)nc1 [Example 207, (3R,9S,13S)-3-benzyl-7-(2-cyclohexylethyl)-9-isobutyl-16-methoxy-N-(2-(5-methoxypyridin-2-yl)ethyl)-10-methyl-5,8,11,15-tetraoxo-2,3,4,5,6,7,8,9,10,11,12,13,14,15-tetradecahydrobenzo[p][1]oxa[4,7,10,14]tetraazacycloheptadecine-13-carboxamide]
10 | 277 | 188 | COc1cccc2c1C(=O)N[C@H](C(=O)NCCc1ccco1)CC(=O)N(C)[C@@H](CC(C)C)C(=O)N(CCC1CCCCC1)CC(=O)N[C@H](Cc1ccccc1)CO2 [Example 208, (3R,9S,13S)-3-benzyl-7-(2-cyclohexylethyl)-N-(2-(furan-2-yl)ethyl)-9-isobutyl-16-methoxy-10-methyl-5,8,11,15-tetraoxo-2,3,4,5,6,7,8,9,10,11,12,13,14,15-tetradecahydrobenzo[p][1]oxa[4,7,10,14]tetraazacycloheptadecine-13-carboxamide]
11 | 392 | 118 | COc1cccc2c1C(=O)N[C@H](C(=O)NCCn1nc(C)cc1C)CC(=O)N(C)[C@@H](CC(C)C)C(=O)N(CCC1CCCCC1)CC(=O)N[C@H](Cc1ccccc1)CO2 [Example 209, (3R,9S,13S)-3-benzyl-7-(2-cyclohexylethyl)-N-(2-(3,5-dimethyl-1H-pyrazol-1-yl)ethyl)-9-isobutyl-16-methoxy-10-methyl-5,8,11,15-tetraoxo-2,3,4,5,6,7,8,9,10,11,12,13,14,15-tetradecahydrobenzo[p][1]oxa[4,7,10,14]tetraazacycloheptadecine-13-carboxamide]
12 | 352 | 108 | COCCCNC(=O)[C@@H]1CC(=O)N(C)[C@@H](CC(C)C)C(=O)N(CCC2CCCCC2)CC(=O)N[C@H](Cc2ccccc2)COc2cccc(OC)c2C(=O)N1 [Example 210, (3R,9S,13S)-3-benzyl-7-(2-cyclohexylethyl)-9-isobutyl-16-methoxy-N-(3-methoxypropyl)-10-methyl-5,8,11,15-tetraoxo-2,3,4,5,6,7,8,9,10,11,12,13,14,15-tetradecahydrobenzo[p][1]oxa[4,7,10,14]tetraazacycloheptadecine-13-carboxamide]
13 | 292 | 221 | COc1cccc2c1C(=O)N[C@H](C(=O)NCCc1cc(C)no1)CC(=O)N(C)[C@@H](CC(C)C)C(=O)N(CCC1CCCCC1)CC(=O)N[C@H](Cc1ccccc1)CO2 [Example 214, (3R,9S,13S)-3-benzyl-7-(2-cyclohexylethyl)-9-isobutyl-16-methoxy-10-methyl-N-(2-(3-methylisoxazol-5-yl)ethyl)-5,8,11,15-tetraoxo-2,3,4,5,6,7,8,9,10,11,12,13,14,15-tetradecahydrobenzo[p][1]oxa[4,7,10,14]tetraazacycloheptadecine-13-carboxamide]
14 | 420 | 102 | COCCCCCNC(=O)[C@@H]1CC(=O)N(C)[C@@H](CC(C)C)C(=O)N(CCC2CCCCC2)CC(=O)N[C@H](Cc2ccccc2)COc2cccc(OC)c2C(=O)N1 [Example 216, (3R,9S,13S)-3-benzyl-7-(2-cyclohexylethyl)-9-isobutyl-16-methoxy-N-(5-methoxypentyl)-10-methyl-5,8,11,15-tetraoxo-2,3,4,5,6,7,8,9,10,11,12,13,14,15-tetradecahydrobenzo[p][1]oxa[4,7,10,14]tetraazacycloheptadecine-13-carboxamide]
15 | 202 | 135 | COc1cccc2c1C(=O)N[C@H](C(=O)NCCc1ccc(-n3cccn3)cc1)CC(=O)N(C)[C@@H](CC(C)C)C(=O)N(CCC1CCCCC1)CC(=O)N[C@H](Cc1ccccc1)CO2 [Example 217, (3R,9S,13S)-N-(4-(1H-pyrazol-1-yl)phenethyl)-3-benzyl-7-(2-cyclohexylethyl)-9-isobutyl-16-methoxy-10-methyl-5,8,11,15-tetraoxo-2,3,4,5,6,7,8,9,10,11,12,13,14,15-tetradecahydrobenzo[p][1]oxa[4,7,10,14]tetraazacycloheptadecine-13-carboxamide]
16 | 258 | 103 | COc1cccc(CCNC(=O)[C@@H]2CC(=O)N(C)[C@@H](CC(C)C)C(=O)N(CCC3CCCCC3)CC(=O)N[C@H](Cc3ccccc3)COc3cccc(OC)c3C(=O)N2)n1 [Example 220, (3R,9S,13S)-3-benzyl-7-(2-cyclohexylethyl)-9-isobutyl-16-methoxy-N-(2-(6-methoxypyridin-2-yl)ethyl)-10-methyl-5,8,11,15-tetraoxo-2,3,4,5,6,7,8,9,10,11,12,13,14,15-tetradecahydrobenzo[p][1]oxa[4,7,10,14]tetraazacycloheptadecine-13-carboxamide]
